# Experimental data: article PMC11904993, “Humanized Candida and NanoBiT Assays Expedite Discovery of Bdf1 Bromodomain Inhibitors With Antifungal Potential” (Advanced Science, 2025)
# Several values for one entry are separate records, joined by “and”; a condition that tells them apart may be missing. Equal entries are not always repeated. Where two headings read alike, the source gives them in different places.
# Columns and labels:
# [1] = test system: C. glabrata strains (WT, pdr1∆ or PDR1 rescue); experiment: Growth assays to assess compound efflux; assay type: cell-based; settings: for growth relative to Solvent = 100 (Figure S10B): compound 50 µM; for growth relative to Solvent = 100 (Figure S10B) / growth (Figure S10A): three replicates
# Method: Cells from a single colony were diluted in 0.85% NaCl before being counted using a Neubauer chamber. […] The effect of fluconazole was tested by titration on these strains under similar conditions.
# [2] = test system: C. glabrata strains expressing WT and mutant Bdf1; experiment: Growth inhibition in liquid media, C. glabrata lab strains; settings: Exp 1-3; for OD at 600 nm: Figure S9A
# Method: (§1) Growth on Liquid Media with C. glabrata Lab Strains: Cells were grown at 30 °C in SC+M+C‐U medium (SC medium with 5 mM methionine, 0.25 mM cysteine, without uracil) to an OD600 of 0.5–0.8. […] Plates were incubated at 30 °C and OD600 was measured using a Multiskan FC Microplate Photometer (Thermo Fisher).
# [3] = test system: C. glabrata expressing humanized Bdf1 (Brd4 BDs); experiment: Growth inhibition in liquid media, humanized C. glabrata strains; settings: Fig 3E, 50 µM, Exp 1-3
# Method: as §1
# CgBdf1 BD1 [4] = target: CgBdf1 BD1 (Candida glabrata, UniProt Q6FWV7); experiment: HTRF assay, inhibition of H4ac4 peptide binding; design: species or system C. glabrata; settings: for IC50: Table S4
# CgBdf1 BD2 [5] = target: CgBdf1 BD2 (Candida glabrata, UniProt Q6FWV7); experiment: biochemical; assay type: binding, C. glabrata
# human Brd4 BD1 = human Brd4 BD1 (Homo sapiens, UniProt O60885); experiment: HTRF assay, inhibition of H4ac4 peptide binding; settings: for %HTRF Signal: Exp1-3
# human Brd4 BD2 = target: T1, human Brd4 BD2 (Homo sapiens, UniProt O60885); experiment: HTRF assay, inhibition of H4ac4 peptide binding; settings: hBrd4 BD2; for %HTRF Signal: Exp1-3
# T1 construct: GST‐tagged BD2 (residues 349–460) from human Brd4 (UniProt ID O60885); purchased Reaction Biology Corp
# CgBdf1 BD1 [6] = experiment: Histone peptide array assay; settings: peptide array signal
# Method: (§2) The array was prepared as described in the manufacturer's instructions. […] The array was then washed three times with binding buffer. Anti‐GST antibody (GE Healthcare) was used for the detection of GST‐tagged bromodomains.
# CgBdf1 BD2 [7] = experiment: Histone peptide array assay; settings: peptide array signal
# Method: as §2
# [8] = Fig 1D/2A original data, single experiments Exp1-3
# CgBdf1 BD2 (Candida glabrata, UniProt Q6FWV7), sequence (Q6FWV7 entry or part of it): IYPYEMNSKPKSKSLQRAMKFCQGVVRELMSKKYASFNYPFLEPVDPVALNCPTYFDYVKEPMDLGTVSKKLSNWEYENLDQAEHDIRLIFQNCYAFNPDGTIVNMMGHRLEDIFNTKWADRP
# CgBdf1 BD1 (Candida glabrata, UniProt Q6FWV7), sequence (Q6FWV7 entry or part of it): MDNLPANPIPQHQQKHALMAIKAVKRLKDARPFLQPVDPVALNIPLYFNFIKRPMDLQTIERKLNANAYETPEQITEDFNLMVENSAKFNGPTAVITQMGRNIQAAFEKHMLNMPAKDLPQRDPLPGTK
smiles,measurement,setting,value
CCNC(=O)c1cc2c(-c3cc(C(C)(C)O)ccc3Oc3c(C)cc(F)cc3C)cn(C)c(=O)c2[nH]1 [ABBV744],growth relative to Solvent = 100 (Figure S10B),[1]; PDR1 Rescue,73.7317 and 83.5862 and 73.3043
same,growth relative to Solvent = 100 (Figure S10B),[1]; WT,66.394 and 67.598 and 72.0455
same,growth relative to Solvent = 100 (Figure S10B),[1]; pdr1∆,59.2642 and 64.761 and 73.9837
same,%Growth,"[2]; Fig 3E, 50 µM, WT BDF1-flag",90% and 89% and 91%
same,%Growth,[3]; BDF1-hBD1-flag,90% and 85% and 80%
same,%Growth,[3]; BDF1-hBD2-flag,38% and 32% and 37%
same,%Growth,[3]; humanized BDF1-flag,41% and 39%
Cn1nccc1C(=O)NCc1ccc(-c2nc(-c3cccs3)no2)s1 [Compound 63],%HTRF Signal,CgBdf1 BD1 [4],92.96% and 94.93% and 114.99%
same,%HTRF Signal,"CgBdf1 BD1 [4]; CgBD1, compound 2.10 nM, Exp1-3",89.22% and 91.15% and 92.46%
same,%HTRF Signal,"CgBdf1 BD1 [4]; CgBD1, compound 13.11 nM, Exp1-3",137.24% and 96.18% and 98.59%
same,%HTRF Signal,"CgBdf1 BD1 [4]; CgBD1, compound 32.77 nM, Exp1-3",89.47% and 88.02% and 93.78%
same,%HTRF Signal,"CgBdf1 BD1 [4]; CgBD1, compound 81.92 nM, Exp1-3",87.12% and 79.28% and 89.90%
same,%HTRF Signal,"CgBdf1 BD1 [4]; CgBD1, compound 204.8 nM, Exp1-3",79.54% and 70.30% and 76.77%
same,%HTRF Signal,"CgBdf1 BD1 [4]; CgBD1, compound 512 nM, Exp1-3",60.42% and 54.51% and 55.50%
same,%HTRF Signal,"CgBdf1 BD1 [4]; CgBD1, compound 1280 nM, Exp1-3",88.32% and 78.12% and 81.58%
same,%HTRF Signal,"CgBdf1 BD1 [4]; CgBD1, compound 3200 nM, Exp1-3",43.73% and 36.43% and 36.08%
same,%HTRF Signal,"CgBdf1 BD1 [4]; CgBD1, compound 8000 nM, Exp1-3",32.25% and 38.09% and 29.97%
same,%HTRF Signal,"CgBdf1 BD1 [4]; CgBD1, compound 20000 nM, Exp1-3",23.85% and 25.61% and 19.76%
same,IC50,"CgBdf1 BD1 [4]; CgBD1, individual experiments Exp1-3, read-out: IC50",0.62 µM and 0.71 µM and 0.5 µM
same,pIC50 CgBD1,CgBdf1 BD1 [4]; [8],6.209 and 6.147 and 6.298
same,IC50,"CgBdf1 BD1 [4]; means ± SD, n=3, read-out: IC50 CgBD1",0.61 ± 0.1 µM
same,%HTRF Signal,CgBdf1 BD2 [5],91.88% and 95.70% and 106.64%
same,pIC50 CgBD2,CgBdf1 BD2 [5],≤ 4
same,%HTRF Signal,"CgBdf1 BD2 [5]; CgBD2, compound 2.10 nM, Exp1-3",86.71% and 109.56% and 96.63%
same,%HTRF Signal,"CgBdf1 BD2 [5]; CgBD2, compound 13.11 nM, Exp1-3",107.12% and 98.52% and 93.70%
same,%HTRF Signal,"CgBdf1 BD2 [5]; CgBD2, compound 32.77 nM, Exp1-3",87.98% and 111.39% and 100.52%
same,%HTRF Signal,"CgBdf1 BD2 [5]; CgBD2, compound 81.92 nM, Exp1-3",93.69% and 107.27% and 99.37%
same,%HTRF Signal,"CgBdf1 BD2 [5]; CgBD2, compound 204.8 nM, Exp1-3",87.47% and 98.47% and 101.59%
same,%HTRF Signal,"CgBdf1 BD2 [5]; CgBD2, compound 512 nM, Exp1-3",94.84% and 95.89% and 102.41%
same,%HTRF Signal,"CgBdf1 BD2 [5]; CgBD2, compound 1280 nM, Exp1-3",108.51% and 97.41% and 103.91%
same,%HTRF Signal,"CgBdf1 BD2 [5]; CgBD2, compound 3200 nM, Exp1-3",96.71% and 89.90% and 106.57%
same,%HTRF Signal,"CgBdf1 BD2 [5]; CgBD2, compound 8000 nM, Exp1-3",101.27% and 103.49% and 103.29%
same,%HTRF Signal,"CgBdf1 BD2 [5]; CgBD2, compound 20000 nM, Exp1-3",98.71% and 85.34% and 94.42%
same,IC50,"CgBdf1 BD2 [5]; CgBD2, individual experiments Exp1-3, Table S4, read-out: IC50",> 20 µM
same,pIC50 hBrd4 BD1,human Brd4 BD1; [8],4.548 and 4.767 and 4.490
same,IC50,"human Brd4 BD1; Table S3, estimate, preliminary single-replicate HTRF assay, read-out: IC50 Brd4 BD1",> 20 µM
same,IC50,"human Brd4 BD1; Table S4, means ± SD, n=3, read-out: IC50 hBrd4 BD1",25.9 ± 7.9 µM
same,%HTRF Signal,"human Brd4 BD1; hBrd4 BD1, compound 2.10 nM",98.36% and 97.75% and 98.52%
same,%HTRF Signal,"human Brd4 BD1; hBrd4 BD1, compound 5.24 nM",96.44% and 101.52% and 99.57%
same,%HTRF Signal,"human Brd4 BD1; hBrd4 BD1, compound 13.11 nM",96.19% and 93.70% and 100.56%
same,%HTRF Signal,"human Brd4 BD1; hBrd4 BD1, compound 32.77 nM",100.99% and 95.89% and 96.28%
same,%HTRF Signal,"human Brd4 BD1; hBrd4 BD1, compound 81.92 nM",95.84% and 103.64% and 102.41%
same,%HTRF Signal,"human Brd4 BD1; hBrd4 BD1, compound 204.8 nM",99.83% and 98.50% and 97.67%
same,%HTRF Signal,"human Brd4 BD1; hBrd4 BD1, compound 512 nM",96.60% and 93.56% and 96.36%
same,%HTRF Signal,"human Brd4 BD1; hBrd4 BD1, compound 1280 nM",82.33% and 98.72% and 104.43%
same,%HTRF Signal,"human Brd4 BD1; hBrd4 BD1, compound 3200 nM",94.57% and 92.75% and 93.44%
same,%HTRF Signal,"human Brd4 BD1; hBrd4 BD1, compound 8000 nM",83.80% and 81.87% and 89.53%
same,%HTRF Signal,"human Brd4 BD1; hBrd4 BD1, compound 20000 nM",44.73% and 68.85% and 53.13%
same,IC50,"human Brd4 BD1; hBrd4 BD1, individual experiments Exp1-3, Table S4, read-out: IC50",17.1 µM and 32.4 µM and 28.3 µM
same,%HTRF Signal,human Brd4 BD2; compound 2.10 nM,99.18% and 94.17% and 90.64%
same,%HTRF Signal,human Brd4 BD2; compound 5.24 nM,99.39% and 99.07% and 97.43%
same,%HTRF Signal,human Brd4 BD2; compound 13.11 nM,98.29% and 101.48% and 93.41%
same,%HTRF Signal,human Brd4 BD2; compound 32.77 nM,93.01% and 99.51% and 101.32%
same,%HTRF Signal,human Brd4 BD2; compound 81.92 nM,102.00% and 98.93% and 106.04%
same,%HTRF Signal,human Brd4 BD2; compound 204.8 nM,100.03% and 105.21% and 104.21%
same,%HTRF Signal,human Brd4 BD2; compound 512 nM,98.01% and 98.41% and 97.72%
same,%HTRF Signal,human Brd4 BD2; compound 1280 nM,99.07% and 96.81% and 100.81%
same,%HTRF Signal,human Brd4 BD2; compound 3200 nM,102.84% and 98.87% and 104.55%
same,%HTRF Signal,human Brd4 BD2; compound 8000 nM,108.22% and 84.57% and 107.59%
same,%HTRF Signal,human Brd4 BD2; compound 20000 nM,102.02% and 76.14% and 105.57%
same,IC50,"human Brd4 BD2; individual experiments Exp1-3, Table S4, read-out: IC50",> 20 µM (2×) and 29.2 µM
same,"Raw data, WT","CgBdf1 BD1 [6]; CgBdf1 BD1 WT, first replicate column",0.003151
same,"Normalized (0 to 100%), WT","CgBdf1 BD1 [6]; CgBdf1 BD1 WT, mean of the two raw values",1.81%
same,"Raw data, WT","CgBdf1 BD1 [6]; CgBdf1 BD1 WT, second replicate column",0.03308
same,"Raw data, YF mutant","CgBdf1 BD1 [6]; CgBdf1 BD1 YF mutant, first replicate column",0.001234
same,"Normalized (0 to 100%), YF mutant","CgBdf1 BD1 [6]; CgBdf1 BD1 YF mutant, mean of the two raw values",0.216%
same,"Raw data, YF mutant","CgBdf1 BD1 [6]; CgBdf1 BD1 YF mutant, second replicate column",0.003085
same,"Raw data, WT","CgBdf1 BD2 [7]; CgBdf1 BD2 WT, first replicate column",0.004055
same,"Normalized (0 to 100%), WT","CgBdf1 BD2 [7]; CgBdf1 BD2 WT, mean of the two raw values",0.593%
same,"Raw data, WT","CgBdf1 BD2 [7]; CgBdf1 BD2 WT, second replicate column",0.007798
same,"Raw data, YF mutant","CgBdf1 BD2 [7]; CgBdf1 BD2 YF mutant, first replicate column",0.009509
same,"Normalized (0 to 100%), YF mutant","CgBdf1 BD2 [7]; CgBdf1 BD2 YF mutant, mean of the two raw values",0.675%
same,"Raw data, YF mutant","CgBdf1 BD2 [7]; CgBdf1 BD2 YF mutant, second replicate column",0.003988
same,OD at 600 nm,[2]; WT BDF1 strain,0.4973 and 0.4763 and 0.4793
same,OD at 600 nm,[2]; bdf1-bd1Δ strain,0.2357 and 0.2187 and 0.2437
same,OD at 600 nm,[2]; bdf1-bd2Δ strain,0.1390 and 0.1480 and 0.1420
OC(Cn1cncn1)(Cn1cncn1)c1ccc(F)cc1F [fluconazole],growth (Figure S10A),"[1]; Cg101 pdr1Δ mut, Fluconazole 0.5 µg/mL",21% and 19% and 15%
same,growth (Figure S10A),"[1]; Cg101 pdr1Δ mut, Fluconazole 1 µg/mL",12% and 11% and 6%
same,growth (Figure S10A),"[1]; Cg101 pdr1Δ mut, Fluconazole 2 µg/mL",6% (2×) and 2%
same,growth (Figure S10A),"[1]; Cg101 pdr1Δ mut, Fluconazole 4 µg/mL",6% and 3% and 2%
same,growth (Figure S10A),"[1]; Cg102 pdr1 rescue, Fluconazole 0.5 µg/mL",55% and 61% and 53%
same,growth (Figure S10A),"[1]; Cg102 pdr1 rescue, Fluconazole 1 µg/mL",36% and 35% and 25%
same,growth (Figure S10A),"[1]; Cg102 pdr1 rescue, Fluconazole 2 µg/mL",14% and 19% and 18%
same,growth (Figure S10A),"[1]; Cg102 pdr1 rescue, Fluconazole 4 µg/mL",5% and 9% and 6%
same,growth (Figure S10A),"[1]; Cg103 PDR1 WT, Fluconazole 0.5 µg/mL",57% and 60% and 48%
same,growth (Figure S10A),"[1]; Cg103 PDR1 WT, Fluconazole 1 µg/mL",24% (2×) and 33%
same,growth (Figure S10A),"[1]; Cg103 PDR1 WT, Fluconazole 2 µg/mL",13% and 12% and 14%
same,growth (Figure S10A),"[1]; Cg103 PDR1 WT, Fluconazole 4 µg/mL",6% and 5% (2×)
same,sensitivity upon deletion of PDR1,"[1]; titration, pdr1Δ versus WT and rescue strains",enhanced
